Eleven molecules from patent publication US12419865B2 (priority 2018, dated 2025) can be followed below.

The conditions of data set [1]: guinea pig, 1 h, pH 7.4.
Data set [2] concerns VSV-p. Nature of the data set: microbe, parasite or virus in culture. The data set is classed as cell-based. As to conditions: Vesicular stomatitis virus, Vero, read-out: VSV-p EC50.
For data set [3] the following is noted: 1 h, pH 7.4.
The nature of data set [4]: in vitro. As to conditions: African green monkey.
The test system of data set [5] is native replicating Tacaribe (TCRV) virus. Kind of data set: microbe, parasite or virus in culture. It is filed as cell-based. The conditions noted are these: Mammarenavirus tacaribeense, Vero, 120 h, read-out: TCRV EC50.
For data set [6] the following is noted: 1 h, pH 7.4. This is another data set of the same source.
Data set [7] relates to TCRV-p. Kind of data set: organism not typed. The data set is classed as cell-based. As to conditions: read-out: TCRV-p EC50.
Data set [8] relates to LASV-p. Kind of data set: microbe, parasite or virus in culture. It is filed as cell-based, Lassa (LASV). The conditions noted are these: Vesicular stomatitis virus, Vero, read-out: LASV-p EC50.
Data set [9] relates to MACV-p. Kind of data set: organism not typed. It is filed as cell-based, Machupo (MACV). The conditions noted are these: Vero, read-out: MACV-p EC50.
For data set [10], the system named is JUNV-p. Kind of data set: organism not typed. It is filed as cell-based, Junin (JUNV). The conditions noted are these: Vero, read-out: JUNV-p EC50.
In data set [11] the test system is GTOV-p. Kind of data set: organism not typed. It is filed as cell-based, Guanarito (GTOV). The conditions noted are these: Vero, read-out: GTOV-p EC50.
In data set [12] the target is hERG channel (Homo sapiens, UniProt Q12809). As to conditions: pH 7.4.
hERG channel, sequence (Q12809 whole entry): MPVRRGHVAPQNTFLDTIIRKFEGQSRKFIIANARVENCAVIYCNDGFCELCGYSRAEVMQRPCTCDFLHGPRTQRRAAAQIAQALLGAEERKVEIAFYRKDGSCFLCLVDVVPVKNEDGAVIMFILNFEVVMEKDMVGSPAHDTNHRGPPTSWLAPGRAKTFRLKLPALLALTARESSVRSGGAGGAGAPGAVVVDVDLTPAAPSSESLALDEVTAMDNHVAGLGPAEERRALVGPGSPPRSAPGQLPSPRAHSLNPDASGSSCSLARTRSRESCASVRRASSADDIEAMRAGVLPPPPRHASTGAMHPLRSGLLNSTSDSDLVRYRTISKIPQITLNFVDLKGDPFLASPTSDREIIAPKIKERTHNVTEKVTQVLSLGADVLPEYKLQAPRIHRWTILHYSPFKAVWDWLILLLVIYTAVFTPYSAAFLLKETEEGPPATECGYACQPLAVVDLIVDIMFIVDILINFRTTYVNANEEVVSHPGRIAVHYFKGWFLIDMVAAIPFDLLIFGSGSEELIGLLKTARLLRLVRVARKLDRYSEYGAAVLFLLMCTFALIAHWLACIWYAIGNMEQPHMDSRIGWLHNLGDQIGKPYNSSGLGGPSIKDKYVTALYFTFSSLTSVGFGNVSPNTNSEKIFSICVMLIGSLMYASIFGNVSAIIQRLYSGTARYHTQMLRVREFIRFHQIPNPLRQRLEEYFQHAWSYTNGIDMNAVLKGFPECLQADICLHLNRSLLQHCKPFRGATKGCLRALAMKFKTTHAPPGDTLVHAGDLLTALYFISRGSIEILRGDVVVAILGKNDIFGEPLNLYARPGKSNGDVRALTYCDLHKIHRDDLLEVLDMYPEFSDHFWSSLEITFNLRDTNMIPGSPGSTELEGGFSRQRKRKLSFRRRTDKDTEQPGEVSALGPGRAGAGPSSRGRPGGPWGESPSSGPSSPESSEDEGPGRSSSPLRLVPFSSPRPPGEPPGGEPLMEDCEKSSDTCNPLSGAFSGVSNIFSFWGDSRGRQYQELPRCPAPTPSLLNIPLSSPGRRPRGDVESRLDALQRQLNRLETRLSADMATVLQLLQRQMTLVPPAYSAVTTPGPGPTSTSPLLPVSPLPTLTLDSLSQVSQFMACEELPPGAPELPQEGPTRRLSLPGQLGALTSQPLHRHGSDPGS
For data set [13], the system named is replicative LASV. Nature of the data set: microbe, parasite or virus in culture. The data set is classed as cell-based, Lassa Virus. As to conditions: for EC90: Mammarenavirus lassaense.
The conditions of data set [14]: 1 h, pH 7.4. The source holds these as a separate data set.
The test system of data set [15] is replicative LASV. Kind of data set: microbe, parasite or virus in culture. The data set is classed as cell-based, Lassa Virus. As to conditions: Mammarenavirus lassaense.
The conditions of data set [16]: 1 h, pH 7.4. The source holds these as a separate data set.
The conditions of data set [17]: 1 h, pH 7.4. This is another data set of the same source.
Data set [18] is described as follows: in vivo. As to conditions: mouse.
The conditions of data set [19]: mouse, in vivo, po.
For data set [20] the following is noted: mouse, in vivo, 30 mg/kg.
Where [21] appears, read: read-out: EC90 in the VYR assay format.
The mark [22] stands for this setting: read-out: EC50 in the plaque assay format.

pEC50: −log10 of the molar value. Like-named read-outs stand apart in the source and are kept apart here. Where only a bound is given, the exact number is not on record here.

Broadly, the pEC50 is −log10 of the EC50, conventionally taken in molar units. In the case of `Cc1cc2ncc(-c3ccc(OC(C)C)cc3)n2cc1-c1ccc(C(C)(C)O)cc1` [Example B5, 2-(4-(3-(4-isopropoxyphenyl)-7-methylimidazo[1,2-a]pyridin-6-yl)phenyl)propan-2-ol], the “Percent parent compound remaining at 60 minutes in liver microsomes, Guinea” value (“Percent parent compound remaining … Guinea” for short) in data set [1] came to 7.4%. Also, the pEC50 in data set [2] is < 5.00; in [5], 9.06; in [7] (Vero) it was 9.80; in [7], 10.00; in data set [8] it was 9.28; in [9], 9.80. In data set [10], the negative logarithm of the EC50 (pEC50) is 9.74. Besides, in data set [3], the “Percent parent compound remaining at 60 minutes in liver microsomes, Human” value (shortened to “Percent parent compound remaining … Human”) worked out at 86.7%. This molecule yielded a CC50 in [4] of 3870 nM. Besides, in [6], the “Percent parent compound remaining at 60 minutes in liver microsomes, Mouse” value (“Percent parent compound remaining … Mouse” for short) is listed as 16.4%.

Consider `Cc1c(-c2ccc(OC(C)C)cc2)ccc2nnn(-c3ccc(OC(C)C)cc3)c12` [Example C14, 1,6-bis(4-isopropoxyphenyl)-7-methyl-1H-benzo[d][1,2,3]triazole], for which the “Percent parent compound remaining … Guinea” value in [1] is reported as >95%. The negative-log EC50 (pEC50) in data set [2] was < 5.00; in data set [7] (Vero), 8.33; in data set [8] it was 8.61; in data set [9], 9.55; in data set [10], 9.77. For the same molecule, in data set [3], the “Percent parent compound remaining … Human” value was >95%. In addition, in data set [4], the CC50 is > 100000 nM. The “Percent parent compound remaining … Mouse” value in data set [6] is given as >95%.

As for `CC(C)Oc1ccc(-c2ccc3nnn(-c4ccc(OC(C)C)cc4)c3c2F)cc1` [Example C12, 7-fluoro-1,6-bis(4-isopropoxyphenyl)-1H-benzo[d][1,2,3]triazole], the “Percent parent compound remaining … Guinea” value in data set [1] is reported as >95%. The pEC50 is < 5.00 in data set [2]; 7.82 in data set [7] (Vero); 8.88 in data set [8]; 9.26 in data set [9]; 9.82 in [10]. Besides, the “Percent parent compound remaining … Human” value in [3] is recorded as >95%. Also, the CC50 in data set [4] was > 100000 nM. Further, the “Percent parent compound remaining … Mouse” value in data set [6] came out at 90.3%.

Consider `Cc1cc2ncc(-c3ccc(OC(C)(C)C)cc3)n2cc1-c1ccc(C(C)(C)O)cc1` [Example B6, 2-(4-(3-(4-(tert-butoxy)phenyl)-7-methylimidazo[1,2-a]pyridin-6-yl)phenyl)propan-2-ol], for which the “Percent parent compound remaining … Guinea” value in data set [1] came to 61.5%. The negative logarithm of the EC50 (pEC50) is < 5.00 in data set [2]; 9.02 in data set [5]; 9.80 in [7] (Vero); 10.00 in data set [7]; 9.15 in data set [8]; 9.89 in [9]. Also, the pEC50 was 9.96 in data set [11] and 9.66 in data set [10]. The “Percent parent compound remaining … Human” value in data set [3] is given as 81.5%. Also, in [4], the CC50 worked out at 4320 nM. For the same molecule, in data set [6], the “Percent parent compound remaining … Mouse” value came to 81.7%.

By % Inhibition is commonly meant the change of the read-out against control, counted positive when it falls. As to `CC(C)Oc1ccc(-c2cc3c(cc2Cl)nnn3-c2ccc(OC(C)C)cc2)cc1` [Example C11, 5-chloro-1,6-bis(4-isopropoxyphenyl)-1H-benzo[d][1,2,3]triazole], the “Percent parent compound remaining … Guinea” value in data set [1] was >95%. Besides, the negative logarithm of the EC50 (pEC50) was < 5.00 in data set [2]; 9.08 in data set [5]; 9.11 in data set [7] (Vero); 9.21 in [7]; 8.64 in [8]; 9.72 in data set [9]. Moreover, the pEC50 in [10] was 10.00. For the same molecule, in data set [12], the “% Inhibition at 3 uM” value was <10%. Also, the “Percent parent compound remaining … Human” value in data set [3] is on record as >95%. For the same molecule, in [4], the CC50 was > 100000 nM. Besides, in data set [6], the “Percent parent compound remaining … Mouse” value is >95%.

The EC90 is the concentration needed for an effect of 90%. On to `Cc1cc2ncn(-c3ccc(OC(C)(C)C)cc3)c2cc1-c1ccc(OC(C)C)cc1` [Example A2, 1-(4-(tert-butoxy)phenyl)-6-(4-isopropoxyphenyl)-5-methyl-1H-benzo[d]imidazole], for which the “Percent parent compound remaining … Guinea” value in data set [1] is >95%. The negative logarithm of the EC50 (pEC50) is < 5.00 in data set [2]; 9.48 in data set [5]; 9.82 in [7] (Vero); 9.92 in data set [7]; 8.52 to 9.00 in data set [15] (setting [22]); > 8.52 in data set [15] (read-out: Plaque Assay EC50). Also, the pEC50 in data set [8] is 9.42; in data set [9], 9.85; in data set [11] it was 10.30; in [10] it was 9.82. For the same molecule, the Sl90 in data set [13] is listed as >13,000. Moreover, the 90% effect concentration (EC90) is < 1 nM in data set [13] (Vero, read-out: VYR Assay EC90) and 1 to 3 nM in data set [13] (setting [21]). Further, the “Percent parent compound remaining … Human” value in data set [3] worked out at 95%. For the same molecule, in data set [4], the CC50 was found to be 7300 nM. Moreover, the “Percent parent compound remaining … Mouse” value in data set [6] was found to be 93.9%. Besides, the “Percent parent compound remaining at 60 minutes in liver microsomes, Monkey” value in data set [14] is recorded as 53%. In addition, the “Percent parent compound remaining at 60 minutes in liver microsomes, Rat” value in data set [16] was >95%. Also, the “Percent parent compound remaining at 60 minutes in liver microsomes, Dog” value in data set [17] is recorded as >95%.

For `CC(C)Oc1ccc(-c2cc3c(cc2F)nnn3-c2ccc(OC(C)C)cc2)cc1` [Example C13, 5-fluoro-1,6-bis(4-isopropoxyphenyl)-1H-benzo[d][1,2,3]triazole], the negative logarithm of the EC50 (pEC50) in [2] was < 5.00; in data set [7] (Vero) it was 8.82; in data set [8], 8.40; in [9], 9.18; in data set [10], 9.57. The “Percent parent compound remaining … Human” value in data set [3] came to 79.5%. In addition, the CC50 in [4] is > 100000 nM.

For `Cc1cc2ncn(-c3ccc(OC(C)C)cc3)c2cc1-c1ccc(C(C)(C)O)cc1` [Example A3, 2-(4-(1-(4-isopropoxyphenyl)-5-methyl-1H-benzo[d]imidazol-6-yl)phenyl)propan-2-ol], the “Percent parent compound remaining … Guinea” value in data set [1] came out at 67.6%. The negative logarithm of the EC50 (pEC50) was < 5.00 in [2]; 9.06 in data set [5]; 9.62 in data set [7] (Vero); 9.68 in data set [7]; 9.12 in [8]; 9.77 in data set [9]. For the same molecule, the pEC50 in data set [10] is 9.40. In [3], the “Percent parent compound remaining … Human” value came out at 89.9%. The CC50 in [4] turned out to be 4500 nM. Besides, the “Percent parent compound remaining … Mouse” value in data set [6] turned out to be 25.4%.

Turning to `CC(C)Oc1ccc(-n2nnc3ccc(-c4ccc(C(C)(C)O)cc4)cc32)cc1` [Example C16, 2-(4-(1-(4-isopropoxyphenyl)-1H-benzo[d][1,2,3]triazol-6-yl)phenyl)propan-2-ol], the “Percent parent compound remaining … Guinea” value in data set [1] came to 61.9%. The negative-log EC50 (pEC50) in data set [2] is < 5.00; in data set [7] (Vero), 8.44; in [8], 8.52; in data set [9] it was 8.76; in [10] it was 9.35. Further, the “Percent parent compound remaining … Human” value in [3] stood at 72.3%. The molecule further displayed a CC50 in data set [4] of 4120 nM. Also, in data set [6], the “Percent parent compound remaining … Mouse” value is reported as 57.4%.

For orientation: Vd means the apparent volume that relates the amount in the body to the concentration in plasma or blood. The clearance is the rate of elimination divided by the concentration. For orientation: AUC(0-t) means exposure summed from dosing to a finite time, without extrapolation to infinity. A word on the bioavailability: it is dose-corrected exposure relative to a reference, in per cent. In the case of `Cc1cc2ncc(-c3ccc(OC(C)(C)C)cc3)n2cc1-c1ccc(OC(C)C)cc1` [Example B7, 3-(4-(tert-butoxy)phenyl)-6-(4-isopropoxyphenyl)-7-methylimidazo[1,2-a]pyridine], the volume of distribution (Vd) in data set [18] was 35.7 L/kg. Besides, the clearance in data set [18] turned out to be 13.7 mL/min/kg. The same molecule came in with an exposure AUC(0-t) in data set [18] (po, 30 mg/kg) of 70400 ng·h/mL. The same molecule registered a bioavailability in data set [18] (po, 30 mg/kg) of 30%. For the same molecule, the “24 hr liver concentration” value in [19] worked out at 63.4 ug/g liver. Also, the “24 hr plasma concentration” value in [19] came out at 9.1 µg/mL. In addition, the pEC50 in [2] was < 5.00; in [5], 9.13; in [7] (Vero), 9.80; in [7], 9.70; in data set [15] (setting [22]), 8.52 to 9.00; in data set [15] (read-out: Plaque Assay EC50), > 8.52. The negative-log EC50 (pEC50) was 9.05 in [8], 9.38 in [9], 9.92 in [11] and 9.51 in data set [10]. Moreover, in data set [12], the “% Inhibition at 3 uM” value is reported as <10%. Also, in data set [13], the Sl90 is listed as >11,000. Besides, the EC90 in data set [13] (Vero, read-out: VYR Assay EC90) is < 1 nM; in data set [13] (setting [21]) it was 1 to 3 nM. The CC50 in data set [4] worked out at 8140 nM. For the same molecule, the “Oral C-Max” value in [20] was found to be 5.5 µg/mL. The “Oral T-Max” value in data set [20] came out at 2 h.

For `[2H]C([2H])([2H])C([2H])(Oc1ccc(-c2cn3c(-c4ccc(OC(C)(C)C)cc4)cnc3cc2C)cc1)C([2H])([2H])[2H]` [Example E30, 3-(4-(tert-butoxy)phenyl)-6-(4-(isopropoxy-d7)phenyl)-7-methylimidazo[1,2-a]pyridine], the Sl90 in data set [13] is on record as >1,510. Besides, the EC90 is < 14 nM in data set [13] (Vero, read-out: VYR Assay EC90) and < 14 nM in data set [13] (setting [21]). Moreover, the CC50 in [4] stood at 3800 nM. Also, the pEC50 is 9.70 in data set [7], 9.41 in data set [8], 10.05 in data set [9] and 10.05 in [10].
